The values below come from patent publication US20250034159A1, “INHIBITORS OF EPIDERMAL GROWTH FACTOR RECEPTOR” (ORIC Pharmaceuticals, Inc., priority 2021, published 2025).

Some results are limits rather than exact numbers.

In assay [1] the target is recombinant human EGFR exon 19 deletion/C797S double mutant protein (Homo sapiens (Human), UniProt P00533, C797S/DEL746-750). Nature of the assay: Biological Activity Assay C: biochemical assay against EGFR exon 19 deletion/C797S protein (EGFR d19/CS). The essentials:
(§1)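 IC50 values were fitted with a 4-parameter model to reaction slopes taken from 90 kinetic reads spaced 120 s apart. The Phosphosens sensor/ATP working solution was 40 uM/4 mM, and compound was dosed as 16-point dilutions at 2.5% final DMSO.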

In a further assay the test system is BaF3_EGFR LR/CS cells. The assay is described as follows: Biological Activity Assay D: BaF3 cell proliferation assay, EGFR L858R/C797S mutant (BaF3 LR/CS). The class given is cell-based. As to conditions: Ba/F3 EGFR; BaF3_EGFR LR/CS cells, ~72 hours, CellTiter-Glo; read-out: BaF3 LR/CS IC50. On the technique in general: ATP-based viability assays read luminescence as a measure of living cells.

The target in assay [2] is recombinant human EGFR L858R/C797S double mutant protein (Homo sapiens (Human), UniProt P00533, C797S/L858R). Nature of the assay: Biological Activity Assay B: biochemical assay against EGFR L858R/C797S protein (EGFR LR/CS). The essentials: as §1
Sequence of recombinant human EGFR L858R/C797S double mutant protein (P00533 25-1210 C797S/L858R): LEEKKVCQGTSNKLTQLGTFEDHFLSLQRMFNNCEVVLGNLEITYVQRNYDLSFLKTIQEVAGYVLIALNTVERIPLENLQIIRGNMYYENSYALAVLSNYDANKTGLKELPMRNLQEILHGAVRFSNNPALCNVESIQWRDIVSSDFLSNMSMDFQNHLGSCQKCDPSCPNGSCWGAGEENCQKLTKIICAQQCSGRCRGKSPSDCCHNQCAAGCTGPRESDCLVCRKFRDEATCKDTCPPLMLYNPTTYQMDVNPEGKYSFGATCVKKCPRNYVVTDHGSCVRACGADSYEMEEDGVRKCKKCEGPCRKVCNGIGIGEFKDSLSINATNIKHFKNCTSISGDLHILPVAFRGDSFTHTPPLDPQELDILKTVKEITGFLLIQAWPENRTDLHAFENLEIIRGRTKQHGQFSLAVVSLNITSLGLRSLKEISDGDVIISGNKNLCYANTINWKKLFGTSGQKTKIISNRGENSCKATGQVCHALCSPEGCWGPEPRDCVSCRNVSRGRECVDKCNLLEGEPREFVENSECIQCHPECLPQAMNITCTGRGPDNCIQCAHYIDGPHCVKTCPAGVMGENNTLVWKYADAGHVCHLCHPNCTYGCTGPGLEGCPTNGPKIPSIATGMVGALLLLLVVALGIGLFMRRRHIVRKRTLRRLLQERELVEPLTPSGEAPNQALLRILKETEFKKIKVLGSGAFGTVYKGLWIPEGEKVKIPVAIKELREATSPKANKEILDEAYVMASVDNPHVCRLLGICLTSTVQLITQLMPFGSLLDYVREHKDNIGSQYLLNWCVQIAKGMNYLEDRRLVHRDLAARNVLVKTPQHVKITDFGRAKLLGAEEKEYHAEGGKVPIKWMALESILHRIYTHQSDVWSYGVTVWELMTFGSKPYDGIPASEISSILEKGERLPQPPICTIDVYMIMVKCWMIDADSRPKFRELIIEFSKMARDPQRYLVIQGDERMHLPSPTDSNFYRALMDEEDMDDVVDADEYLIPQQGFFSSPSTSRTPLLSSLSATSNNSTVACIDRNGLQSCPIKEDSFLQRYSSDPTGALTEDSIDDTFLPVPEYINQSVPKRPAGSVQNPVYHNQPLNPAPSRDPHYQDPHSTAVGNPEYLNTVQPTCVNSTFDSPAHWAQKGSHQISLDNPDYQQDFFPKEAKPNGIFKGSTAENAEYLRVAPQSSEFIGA
The next assay concerns BaF3_EGFR d19/CS cells. The assay is described as follows: Biological Activity Assay D: BaF3 cell proliferation assay, EGFR exon 19 deletion/C797S (BaF3 d19/CS). The class given is cell-based. The following applies: Ba/F3 EGFR; BaF3_EGFR d19/CS cells, ~72 hours, CellTiter-Glo; read-out: BaF3 d19/CS IC50.
A further assay deals with Ba/F3_EGFR WT cells. Nature of the assay: Biological Activity Assay D: BaF3 cell proliferation assay, EGFR wild-type (BaF3 WT). The following applies: Ba/F3 EGFR; Ba/F3_EGFR WT cells, ~72 hours, CellTiter-Glo; read-out: BaF3 WT IC50. The class given is cell-based.

Sequence of recombinant human EGFR exon 19 deletion/C797S double mutant protein (P00533 other isoform, or with tags, fused parts or gaps C797S/del 1-668/del 746-750 limits assumed): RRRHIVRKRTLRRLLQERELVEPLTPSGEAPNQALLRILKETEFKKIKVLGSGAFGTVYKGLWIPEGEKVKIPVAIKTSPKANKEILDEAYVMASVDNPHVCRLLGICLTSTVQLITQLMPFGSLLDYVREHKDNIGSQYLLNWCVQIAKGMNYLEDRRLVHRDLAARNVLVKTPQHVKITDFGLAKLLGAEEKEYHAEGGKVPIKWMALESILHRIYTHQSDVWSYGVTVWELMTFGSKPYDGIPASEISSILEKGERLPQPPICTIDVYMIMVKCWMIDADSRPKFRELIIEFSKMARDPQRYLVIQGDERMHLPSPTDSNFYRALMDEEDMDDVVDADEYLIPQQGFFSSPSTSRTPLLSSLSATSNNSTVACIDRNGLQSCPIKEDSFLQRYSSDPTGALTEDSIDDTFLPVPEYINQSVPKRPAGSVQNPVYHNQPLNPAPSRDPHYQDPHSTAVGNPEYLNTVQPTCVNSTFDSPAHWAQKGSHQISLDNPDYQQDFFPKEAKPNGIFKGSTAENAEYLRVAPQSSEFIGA

As to `O=S1(=O)CC(n2nc(-c3ccc(F)cc3)c(-c3ncnc4oc(-c5ccccc5)cc34)n2)C1` [Example 104, 3-[4-(4-Fluorophenyl)-5-(6-phenylfuro[2,3-d]pyrimidin-4-yl)-2H-1,2,3-triazol-2-yl]-1λ6-thietane-1,1-dione], the IC50 in assay [1] came out at 0.46 nM; with BaF3_EGFR LR/CS cells it was 174 nM; in assay [2] it was 1.67 nM; in the assay with BaF3_EGFR d19/CS cells it was 98 nM; with Ba/F3_EGFR WT cells, 10600 nM.

Regarding `OCCCCn1nc(-c2ccc(F)cc2)c(-c2ncnc3[nH]c(-c4ccccc4)nc23)n1` [Example 28, 4-[4-(4-fluorophenyl)-5-(8-phenyl-9H-purin-6-yl)-2H-1,2,3-triazol-2-yl]butan-1-ol], the IC50 in assay [1] is 4.16 nM; in the assay with BaF3_EGFR LR/CS cells, 493 nM; in assay [2], 10.8 nM; in the assay on BaF3_EGFR d19/CS cells, 885 nM; with Ba/F3_EGFR WT cells, 17800 nM.

As to `CNC(=O)CCn1cc(-c2ncnc3oc(-c4ccccc4)cc23)c(-c2ccc(F)cc2)n1` [Example 117, 3-[3-(4-fluorophenyl)-4-(6-phenylfuro[2,3-d]pyrimidin-4-yl)-1H-pyrazol-1-yl]-N-methylpropanamide], the IC50 in assay [1] worked out at 0.27 nM; in the assay on BaF3_EGFR LR/CS cells, 103 nM; in assay [2], 0.47 nM; with BaF3_EGFR d19/CS cells, 93.7 nM; with Ba/F3_EGFR WT cells it was 1270 nM.

For `CS(=O)(=O)CCn1nc(-c2ccc(F)cc2)c(-c2ncnc3oc(-c4ccccc4)cc23)n1` [Example 87, 4-{5-(4-fluorophenyl)-2-[2-(methanesulfonyl)ethyl]-2H-1,2,3-triazol-4-yl}-6-phenylfuro[2,3-d]pyrimidine], the IC50 in assay [1] came to 1.34 nM; in the assay with BaF3_EGFR LR/CS cells, 140 nM; in assay [2] it was 1.56 nM; in the assay with BaF3_EGFR d19/CS cells, 196 nM; with Ba/F3_EGFR WT cells, 2810 nM.

Turning to `O=S1(=O)CC[C@H](n2cc(-c3ncnc4oc(-c5ccccc5)cc34)c(-c3ccc(F)cc3)n2)C1` (single isomer, unassigned) [Example 73], the IC50 is 0.48 nM in assay [1]; 80.9 nM with BaF3_EGFR LR/CS cells; 0.77 nM in assay [2]; 56 nM in the assay on BaF3_EGFR d19/CS cells; 2490 nM with Ba/F3_EGFR WT cells.

Consider `CS(=O)(=O)CCn1cc(-c2ncnc3oc(-c4ccccc4)cc23)c(-c2ccc(F)cc2)n1` [Example 38, 4-{3-(4-Fluorophenyl)-1-[2-(methanesulfonyl)ethyl]-1H-pyrazol-4-yl}-6-phenylfuro[2,3-d]pyrimidine], for which the IC50 in assay [1] is 0.856 nM; in the assay with BaF3_EGFR LR/CS cells, 121 nM; in assay [2], 0.434 nM; in the assay on BaF3_EGFR d19/CS cells it was 44.8 nM; in the assay on Ba/F3_EGFR WT cells, 2170 nM.

On to `Fc1ccc(-c2nn(C3COC3)cc2-c2ncnc3oc(-c4ccccc4)cc23)cc1` [Example 31, 4-[3-(4-Fluorophenyl)-1-(oxetan-3-yl)-1H-pyrazol-4-yl]-6-phenylfuro[2,3-d]pyrimidine], for which the IC50 in assay [1] came out at 0.446 nM; in the assay with BaF3_EGFR LR/CS cells it was 97.9 nM; in assay [2], 0.521 nM; in the assay with BaF3_EGFR d19/CS cells, 66.5 nM; in the assay on Ba/F3_EGFR WT cells, 3320 nM.

`O=S1(=O)CC(n2cc(-c3ncnc4oc(-c5ccccc5)cc34)c(-c3ccc(F)cc3)n2)C1` [Example 40, 3-[3-(4-Fluorophenyl)-4-(6-phenylfuro[2,3-d]pyrimidin-4-yl)-1H-pyrazol-1-yl]-1λ6-thietane-1,1-dione]: the IC50 in assay [1] worked out at 0.192 nM; in the assay on BaF3_EGFR LR/CS cells, 36.4 nM; in assay [2] it was 0.327 nM; in the assay with BaF3_EGFR d19/CS cells, 22 nM; in the assay with Ba/F3_EGFR WT cells, 2100 nM.

Turning to `CC(C)(O)Cn1cc(-c2ncnc3oc(-c4ccccc4)cc23)c(-c2ccc(F)cc2)n1` [Example 46, 1-[3-(4-Fluorophenyl)-4-(6-phenylfuro[2,3-d]pyrimidin-4-yl)-1H-pyrazol-1-yl]-2-methylpropan-2-ol], the IC50 is 0.317 nM in assay [1]; 41.1 nM in the assay on BaF3_EGFR LR/CS cells; 0.389 nM in assay [2]; 21.1 nM with BaF3_EGFR d19/CS cells; 2160 nM in the assay on Ba/F3_EGFR WT cells.

Take `Fc1ccc(-c2n[nH]cc2-c2ncnc3oc(-c4ccccc4)cc23)cc1` [Example 60, 4-[3-(4-Fluorophenyl)-1H-pyrazol-4-yl]-6-phenylfuro[2,3-d]pyrimidine]: the IC50 in assay [1] is 0.419 nM; with BaF3_EGFR LR/CS cells, 88.3 nM; in assay [2], 0.526 nM; with BaF3_EGFR d19/CS cells, 118 nM; in the assay with Ba/F3_EGFR WT cells it was 2270 nM.

As for `O=S1(=O)CC(CCn2cc(-c3ncnc4oc(-c5ccccc5)cc34)c(-c3ccc(F)cc3)n2)C1` [Example 52, 3-{2-[3-(4-Fluorophenyl)-4-(6-phenylfuro[2,3-d]pyrimidin-4-yl)-1H-pyrazol-1-yl]ethyl}-1λ6-thietane-1,1-dione], the IC50 in assay [1] is 0.368 nM; with BaF3_EGFR LR/CS cells, 106 nM; in assay [2], 0.307 nM; in the assay with BaF3_EGFR d19/CS cells, 20.8 nM; with Ba/F3_EGFR WT cells it was 1940 nM.

As to `FCCCCn1cc(-c2ncnc3oc(-c4ccccc4)cc23)c(-c2ccc(F)cc2)n1` [Example 71, 4-[1-(4-fluorobutyl)-3-(4-fluorophenyl)-1H-pyrazol-4-yl]-6-phenylfuro[2,3-d]pyrimidine], the IC50 in assay [1] worked out at 1.62 nM; with BaF3_EGFR LR/CS cells, 84.1 nM; in assay [2], 1.25 nM; with BaF3_EGFR d19/CS cells, 151 nM; in the assay with Ba/F3_EGFR WT cells, 2620 nM.

Regarding `CN(C)S(=O)(=O)CCCn1cc(-c2ncnc3oc(-c4ccccc4)cc23)c(-c2ccc(F)cc2)n1` [Example 61, 3-[3-(4-Fluorophenyl)-4-(6-phenylfuro[2,3-d]pyrimidin-4-yl)-1H-pyrazol-1-yl]-N,N-dimethylpropane-1-sulfonamide], the IC50 in assay [1] was 0.907 nM; in the assay with BaF3_EGFR LR/CS cells it was 73.2 nM; in assay [2] it was 0.601 nM; with BaF3_EGFR d19/CS cells, 24.4 nM; with Ba/F3_EGFR WT cells, 1140 nM.

Consider `CC(C)(O)CCn1nc(-c2ccc(F)cc2)c(-c2ncnc3oc(-c4ccccc4)cc23)n1` [Example 82, 4-[4-(4-fluorophenyl)-5-(6-phenylfuro[2,3-d]pyrimidin-4-yl)-2H-1,2,3-triazol-2-yl]-2-methylbutan-2-ol], for which the IC50 in assay [1] was 2.86 nM; in the assay with BaF3_EGFR LR/CS cells it was 392 nM; in assay [2], 4.33 nM; in the assay on BaF3_EGFR d19/CS cells, 597 nM; in the assay on Ba/F3_EGFR WT cells, more than 20000 nM.

For the molecule `CN1CCN(c2ccc(-c3cc4c(-c5cn(CCCO)nc5-c5ccc(F)cc5)ncnc4[nH]3)cc2)CC1` [Example 19, 3-[3-(4-Fluorophenyl)-4-{6-[4-(4-methylpiperazin-1-yl)phenyl]-7H-pyrrolo[2,3-d]pyrimidin-4-yl}-1H-pyrazol-1-yl]propan-1-ol], the IC50 in assay [1] was 0.17 nM; in the assay on BaF3_EGFR LR/CS cells it was 0.402 nM; in assay [2] it was 0.242 nM; in the assay on BaF3_EGFR d19/CS cells, 0.244 nM; in the assay on Ba/F3_EGFR WT cells it was 8.67 nM.

With `CS(=O)(=O)N1CC[C@@H](n2cc(-c3ncnc4oc(-c5ccccc5)cc34)c(-c3ccc(F)cc3)n2)C1` (single isomer, unassigned) [Example 101], the IC50 was 0.27 nM in assay [1]; 8.69 nM in the assay on BaF3_EGFR LR/CS cells; 0.39 nM in assay [2]; 4.96 nM in the assay on BaF3_EGFR d19/CS cells; 115 nM in the assay on Ba/F3_EGFR WT cells.

As for `CCC(=O)CCn1cc(-c2ncnc3oc(-c4ccccc4)nc23)c(-c2ccc(F)cc2)n1` [Example 20, 1-[3-(4-fluorophenyl)-4-(2-phenyl[1,3]oxazolo[5,4-d]pyrimidin-7-yl)-1H-pyrazol-1-yl]pentan-3-one], the IC50 in assay [1] was 4.19 nM; in the assay with BaF3_EGFR LR/CS cells it was 578 nM; in assay [2] it was 4.92 nM; with BaF3_EGFR d19/CS cells, 686 nM; with Ba/F3_EGFR WT cells it was 5340 nM.

In the case of `CC(C)(O)CCc1nc(-c2ccc(F)cc2)c(-c2ncnc3oc(-c4ccccc4)nc23)o1` [Example 57, 4-[4-(4-fluorophenyl)-5-(2-phenyl[1,3]oxazolo[5,4-d]pyrimidin-7-yl)-1,3-oxazol-2-yl]-2-methylbutan-2-ol], the IC50 is 10.3 nM in assay [1]; 689 nM in the assay with BaF3_EGFR LR/CS cells; 16.8 nM in assay [2]; 1290 nM in the assay with BaF3_EGFR d19/CS cells; 7390 nM in the assay with Ba/F3_EGFR WT cells.

For `CN1CCN(c2ccc(-c3cc4c(-c5nn(CCCO)nc5-c5ccc(F)cc5)ccnc4[nH]3)cc2)CC1` [Example 18, 3-[4-(4-Fluorophenyl)-5-{2-[4-(4-methylpiperazin-1-yl)phenyl]-1H-pyrrolo[2,3-b]pyridin-4-yl}-2H-1,2,3-triazol-2-yl]propan-1-ol], the IC50 stood at 0.0926 nM in assay [1]; 2.06 nM in the assay on BaF3_EGFR LR/CS cells; 0.141 nM in assay [2]; 1.83 nM in the assay with BaF3_EGFR d19/CS cells; 71.4 nM in the assay with Ba/F3_EGFR WT cells.

With `CC(C)(O)Cn1cc(-c2ncnc3oc(-c4ccccc4)cc23)c(-c2cccc(F)c2)n1` [Example 95, 1-[3-(3-Fluorophenyl)-4-(6-phenylfuro[2,3-d]pyrimidin-4-yl)-1H-pyrazol-1-yl]-2-methylpropan-2-ol], the IC50 in assay [1] stood at 0.32 nM; with BaF3_EGFR LR/CS cells, 116 nM; in assay [2] it was 0.75 nM; in the assay with BaF3_EGFR d19/CS cells it was 95.2 nM; in the assay with Ba/F3_EGFR WT cells it was 2090 nM.

In the case of `OCCCn1cc(-c2ncnc3[nH]c(-c4ccccc4)cc23)c(-c2ccc(F)cc2)n1` [Example 9, 3-[3-(4-Fluorophenyl)-4-(6-phenyl-7H-pyrrolo[2,3-d]pyrimidin-4-yl)-1H-pyrazol-1-yl]propan-1-ol], the IC50 came out at 0.121 nM in assay [1]; 0.63 nM with BaF3_EGFR LR/CS cells; 0.099 nM in assay [2]; 0.547 nM in the assay on BaF3_EGFR d19/CS cells; 15.4 nM in the assay with Ba/F3_EGFR WT cells.
